In US12427134B2, “Methods of reducing the risk of cardiovascular events in a subject with atrial fibrillation and/or atrial flutter” (priority 2019, dated 2025):

Test system: hypertriglyceridemic patients with cardiovascular disease or at high risk for cardiovascular disease
Test: REDUCE-IT: subgroup analyses of the primary and key secondary endpoints
Format: in vivo, human
Conditions: for Primary endpoint, patients with event (%) / Time to primary endpoint, HR (95% CI) AMR101/Placebo: ITT
Protocol: Exploratory Subgroup Analyses: Analyses of the effects that patients off study drug and withdrawn from study have on the primary endpoint were performed. Subgroup analyses of the primary and key secondary endpoints were performed as described for the primary endpoint. For each subgroup, Kaplan-Meier estimates, the log-rank test stratified by stratification factors used at randomization (except where the subgroup was a stratification factor), and HRs and CIs from the Cox proportional hazards model as specified for the primary efficacy endpoint, were summarized by treatment group. Demographic, disease, treatment, and baseline lipid and lipoproteins parameters were explored.
Demographic parameters included: Gender; age at baseline (<65 years and ≥65 years); race (white and nonwhite, or any other subset with at least 10% of the total number of patients); geographical region (Westernized, Eastern European, and Asia Pacific countries); and baseline ezetimibe use (yes/no).
Disease parameters included: CV risk category; the presence/absence of diabetes at baseline; and renal dysfunction at baseline (estimated glomerular filtration rate [eGFR]<60 mL/min/1.73 m^2) using the Chronic Kidney Disease Epidemiology Collaboration (CKD-EPI) equation as follows: eGFR=141×min(Scr/κ,1)^α×max(Scr/κ,1)^[…]^Age×1.018 [if female]×1.159 [if black]
Treatment Parameters included: Statin intensity at baseline (statin type and regimen); and statin intensity categories as defined in ACC/AHA Cholesterol Guidelines (Stone 2013) and patient's 10-year CV Risk Score (Goff 2013).
Baseline Lipid and Lipoprotein Parameter included: LDL-C (by tertile); HDL-C (by tertile, and tertile by gender); TG (by tertile, and tertile by gender); RLP-C (by tertile); TG ≥150 mg/dL and TG <150 mg/dL; TG ≥200 mg/dL and TG <200 mg/dL; TG ≥median, TG <median; combined highest tertile for TG and lowest tertile for HDL-C; gender-specific highest tertile for TG and lowest tertile for HDL-C; TG ≥200 mg/dL with HDL-C ≤35 mg/dL; hsCRP (≤3 mg/L and >3 mg/L) and by gender; hsCRP (≤2 mg/L and >2 mg/L) and by gender; Apo B (by tertile); non-HDL-C (by tertile); baseline hemoglobin A1c (Hb1c) value (<6.5%, ≥6.5%); baseline PAD; and baseline TG levels ≥150 mg/dL with high-density lipoprotein cholesterol (HDL-C) levels ≤40 mg/dL for males and ≤50 mg/dL for females.
A Cox proportional hazard (PH) model as mentioned above but additionally with baseline TG as a covariate were fitted to the data at each interim. Diagnostic plots for the PH assumption were evaluated. The consistency of the treatment effects in subgroups was assessed for the primary and key secondary efficacy endpoints. For each subgroup variable, a Cox PH model with terms for treatment, stratification factors (with the exception of those subgroup variables related to the stratification factors, i.e., CV risk category), subgroup, and treatment-by-subgroup interaction were performed. The main treatment effect was tested with this model. P-values for testing the interaction terms <0.15 were considered significant. Results were presented in a Forest plot.
Subgroup analyses of the primary and key secondary endpoints were performed as described for the primary endpoint. For each subgroup, Kaplan-Meier estimates, the log-rank test stratified by stratification factors used at randomization (except where the subgroup was a stratification factor), and HRs and CIs from the Cox proportional hazards model as specified for the primary efficacy endpoint, were summarized by treatment group. All subgroup analyses were conducted for the ITT, mITT and PP populations.
Of note regarding the following subgroup analyses, per study design, subgroup analyses are underpowered to detect statistically significant results within each individual subgroup, particularly when a subgroup represents less than 50% of the enrolled population, and when a subgroup has low event rates. […]

[1] = Overall (Males and Females), TG Lowest Tertile (≥81.25 to ≤190 mg/dL)
[2] = Overall (Males and Females), TG Middle Tertile (>190 to ≤250 mg/dL)
[3] = RLP-C (Derived) Highest Tertile (>34.30 to ≤105.86 mg/dL)
[4] = RLP-C (Derived) Lowest Tertile (≥11.89 to ≤28.09 mg/dL)
[5] = RLP-C (Derived) Middle Tertile (>28.09 to ≤34.30 mg/dL)
[6] = TG Lower Half (≥81.25 and ≤216 mg/dL)
[7] = TG Upper Half (>216 and ≤1401 mg/dL)
[8] = above or at the median baseline TG (>216 mg/dL)
[9] = baseline TG <150 mg/dL and HDL-C >40 mg/dL (males) or >50 mg/dL (females)
[10] = baseline TG ≥150 mg/dL and HDL-C ≤40 mg/dL (males) or ≤50 mg/dL (females)
[11] = below the median baseline TG (≥81.25 and ≤216 mg/dL)
[12] = females, middle tertile baseline TG (>186 to ≤241.5 mg/dL)
[13] = highest tertile baseline HDL-C (>43.5 to ≤107.5 mg/dL)
[14] = highest tertile baseline RLP-C (>34.30 to ≤105.86 mg/dL)
[15] = highest tertile baseline TG (>250 to ≤401 mg/dL)
[16] = highest tertile baseline TG and lowest tertile baseline HDL-C
[17] = history of peripheral artery disease
[18] = lowest tertile baseline HDL-C (≥17 to ≤36.5 mg/dL)
[19] = lowest tertile baseline RLP-C (≥11.89 to ≤28.09 mg/dL)
[20] = lowest tertile baseline TG (≥81.25 to ≤190 mg/dL)
[21] = middle tertile baseline HDL-C (>36.5 to ≤43.5 mg/dL)
[22] = middle tertile baseline RLP-C (>28.09 to ≤34.30 mg/dL)
[23] = middle tertile baseline TG (>190 to ≤250 mg/dL)
[24] = not in the highest tertile baseline TG and lowest tertile baseline HDL-C
[25] = primary prevention subgroup (CV risk category 2)
[26] = secondary prevention subgroup (CV risk category 1)
[27] = without atherogenic dyslipidemia
[28] = without history of peripheral artery disease

## CC/C=C\C/C=C\C/C=C\C/C=C\C/C=C\CCCC(=O)OCC [AMR101, eicosapentaenoic acid ethyl ester]
[1]
  Primary endpoint, patients with event (%): 16.9%
  Time to primary endpoint, HR (95% CI) AMR101/Placebo: 0.789
[2]
  Primary endpoint, patients with event (%): 18.0%
  Time to primary endpoint, HR (95% CI) AMR101/Placebo: 0.804
PAD History - No
  Primary endpoint, patients with event (%): 16.3%
  Time to primary endpoint, HR (95% CI) AMR101/Placebo: 0.744
PAD History - Yes
  Primary endpoint, patients with event (%): 26.6%
  Time to primary endpoint, HR (95% CI) AMR101/Placebo: 0.803
[3]
  Primary endpoint, patients with event (%): 17.8%
  Time to primary endpoint, HR (95% CI) AMR101/Placebo: 0.715
[4]
  Primary endpoint, patients with event (%): 17.1%
  Time to primary endpoint, HR (95% CI) AMR101/Placebo: 0.806
[5]
  Primary endpoint, patients with event (%): 16.8%
  Time to primary endpoint, HR (95% CI) AMR101/Placebo: 0.750
[6]
  Primary endpoint, patients with event (%): 17.3%
  Time to primary endpoint, HR (95% CI) AMR101/Placebo: 0.803
[7]
  Primary endpoint, patients with event (%): 17.2%
  Time to primary endpoint, HR (95% CI) AMR101/Placebo: 0.709
US patients
  Primary endpoint event, patients: 18.2%
  Primary endpoint, HR: 0.687
[8]
  Primary endpoint event, patients: 17.2%
  Primary endpoint, HR: 0.709
Atherogenic dyslipidemia (baseline TG ≥200 mg/dL and HDL-C ≤35 mg/dL)
  Primary endpoint event, patients: 18.1%
Baseline HbA1c <6.5%
  Primary endpoint event, patients: 16.5%
  Primary endpoint, HR: 0.793
Baseline HbA1c ≥6.5%
  Primary endpoint event, patients: 18.1%
  Primary endpoint, HR: 0.701
[9]
  Primary endpoint event, patients: 18.2%
  Primary endpoint, HR: 0.842
[10]
  Primary endpoint event, patients: 16.5%
  Primary endpoint, HR: 0.691
Baseline hsCRP >2 mg/L
  Primary endpoint event, patients: 19.2%
  Primary endpoint, HR: 0.813
Baseline hsCRP ≤2 mg/L
  Primary endpoint event, patients: 15.0%
  Primary endpoint, HR: 0.680
[11]
  Primary endpoint event, patients: 17.3%
  Primary endpoint, HR: 0.803
[12]
  Primary endpoint event, patients: 15.1%
  Primary endpoint, HR: 1.077
[13]
  Primary endpoint event, patients: 15.9%
  Primary endpoint, HR: 0.812
[14]
  Primary endpoint event, patients: 17.8%
  Primary endpoint, HR: 0.715
[15]
  Primary endpoint event, patients: 16.9%
  Primary endpoint, HR: 0.675
[16]
  Primary endpoint event, patients: 19.1%
  Primary endpoint, HR: 0.670
[17]
  Primary endpoint event, patients: 26.6%
  Primary endpoint, HR: 0.803
[18]
  Primary endpoint event, patients: 18.1%
  Primary endpoint, HR: 0.667
[19]
  Primary endpoint event, patients: 17.1%
  Primary endpoint, HR: 0.806
[20]
  Primary endpoint event, patients: 16.9%
  Primary endpoint, HR: 0.789
[21]
  Primary endpoint event, patients: 17.6%
  Primary endpoint, HR: 0.800
[22]
  Primary endpoint event, patients: 16.8%
  Primary endpoint, HR: 0.750
[23]
  Primary endpoint event, patients: 18.0%
  Primary endpoint, HR: 0.804
non-US patients
  Primary endpoint event, patients: 16.7%
  Primary endpoint, HR: 0.803
non-white patients
  Key secondary endpoint event, patients: 10.3%
  Key secondary endpoint, HR: 0.554
[24]
  Primary endpoint event, patients: 16.3%
  Primary endpoint, HR: 0.679
Patients on statins of low intensity at baseline
  Key secondary endpoint, point estimate of the HR: 1.200
[25]
  Primary endpoint event, patients: 12.2%
  Primary endpoint, HR: 0.876
[26]
  Primary endpoint event, patients: 19.3%
  Primary endpoint, HR: 0.726
White patients
  Key secondary endpoint event, patients: 11.3%
  Key secondary endpoint, HR: 0.758
[27]
  Primary endpoint event, patients: 17.0%
  Primary endpoint, HR: 0.791
[28]
  Primary endpoint event, patients: 16.3%
  Primary endpoint, HR: 0.744
≥65 years subgroup
  Key secondary endpoint event, patients: 13.9%
  Key secondary endpoint, HR: 0.824
  Primary endpoint event, patients: 20.6%
  Primary endpoint, HR: 0.873
